Assay results as given in patent publication US20090061416A1, “Surfaces and methods for biosensor cellular assays” (priority 2007, published 2009).

Tests used:
CHO-KCNQ cells = assay: ATP-induced DMR signals of CHO-KCNQ cells on RWG biosensor; assay type: cell-based, Chinese hamster
Description: Referring to the Figures, FIGS. 1A and 1B show cross-sectional configurations of two examples of RWG biosensors used for living cell sensing. In FIG. 1A a cell (10) is directly cultured onto the unmodified or bare surface of the waveguide thin film (15) of a RWG biosensor (18) having a waveguide grating atop a substrate. In FIG. 1B a cell (10) is cultured onto the surface of an inorganic thin film (19) which has been previously deposited onto the surface of the waveguide thin film (15). Here a thin film of silicon oxide of about 1 nm to about 5 nm is directly deposited onto the surface of a waveguide thin film of niobium oxide by vapor deposition method. Each biosensor associated cell has an approximate penetration depth (20). […] CHO-KCNQ is an engineered CHO cell having over-expressed a potassium ion channel KCNQ2. FIGS. 2A and 2B compare the ATP-induced DMR signals, response units versus time, of CHO-KCNQ cells: The FIG. 2A cells were cultured on an unmodified or bare niobia surface of the waveguide thin film of a Corning® Epic™ RWG biosensor; and FIG. 2B cells were cultured on a biosensor having, for example, a discontinuous thin film modified waveguide surface of silicon dioxide particles. […]

[1] = tested on: endogenous P2Y receptors in HEK 293 cells; assay: ATP-induced DMR signals of HEK293 cells on coated RWG biosensor surfaces; assay type: cell-based, human
Text: Three surface densities were individually prepared by slow evaporation of 0.0015%, 0.1% and 1.5 weight % gelatin solutions, as described above, covering the biosensor surfaces. The resultant respective gelatin surfaces were referred to as low-, medium-, and high-density gelatin surfaces, respectively. HEK293 cells were separately cultured onto these surfaces.
P2Y receptors belong to the family of G protein-coupled receptors. HEK 293 cells endogenously express several isoforms of P2Y receptors. […] The arrow (540) indicates when the stimulus, an ATP solution, was introduced.
FIGS. 6A and 6B show the reproducibility and robustness of a cell assay of the disclosure using HEK293 cells that were cultured on a low-density gelatin-coated 384-well Epic™ biosensor microplate. A 10 micromolar ATP solution was added to selected well of column 15 of the microplate. The ATP-induced DMR response signals within one column (16 wells) were recorded in real time in seconds and plotted in FIG. 6A. The amplitudes of the initial positive DMR (P-DMR) event (wavelength shift) of the ATP-induced DMR signals were plotted as a function of well numbers 1-16 in FIG. 6B. The assay Coefficient of Variability (CV), or reproducibility, was about 4%, indicating a relatively high reproducibility, with an average signal of 193 picometers (pm), and a standard deviation of 8 pm.
To covalently couple RGD-like peptides to the biosensor surface, the biosensor was coated sequentially with a thin layer of silicon oxide (about 3 nm), aminopropylsilane (about 1-3 nm), poly(ethylene-alt-maleic anhydride) (EMA) (forming polymeric clusters), and finally a RGD-like peptide (Gly-Arg-Gly-Asp-Ser, GRGDS). Specifically, a thin layer of silicon oxide was deposited onto the Corning Epic™ niobium oxide waveguide surface up to 3 nm. Afterwards, the biosensor was coated with an aminopropylsilane solution of about 0.1 vol/vol %, washed and dried, followed by the interaction with an EMA solution of about 0.01 wt/vol %, and washed and dried. Finally, a GRGDS solution was applied to the EMA biosensor surface. […]

[2] = tested on: intracellular protein kinase C (PKC) in Jurkat cells; assay: pseudo-RACK1-induced optical signals of Jurkat cells anchored on RWG biosensor surfaces; assay type: cell-based, human
Text: The Jurkat cells, which present antigens at the cell's surface, were contacted with four different surface types: a bare waveguide substrate having a thin layer of silicon oxide (i.e., SiOx/Nb2O5, uncoated biosensor substrate) (810), a SiOx/Nb2O5 surface having anti-human CD3 (anti-CD3) (820), a SiOx/Nb2O5 surface having amino-reactive polymer EMA coating (EMA) (830), and a SiOx/Nb2O5 surface having covalently coupled anti-human CD3 (i.e., anti-CD3-EMA) (840). The anti-CD3 surface was achieved by incubating a solution containing anti-human CD3 antibody (25 μg/ml) onto the bare SiOx/Nb2O5 surface for 1 hour, followed by washing and drying. The EMA surface was prepared as described above, i.e., by sequentially coating the bare SiOx/Nb2O5 surface with aminopropylsilane and then EMA. The anti-CD3/EMA surface was prepared by incubating anti-human CD3 (25 μg/ml) solution with the EMA surface for 1 hour, followed by blocking with ethanolamine at 1% for 1 hour. The Jurkat cells were incubated on either surface for about 2 hours before assays. The kinetic response, before and after the pseudo-RACK1 addition, was recorded in real time.
Pseudo-RACK1 is a peptide (OH-lys-lys-trp-lys-met-arg-arg-asn-gln-phe-trp-ile-lys-ile-gln-arg-cys----cys-ser-val-glu-ile-trp-asp-OH) and activates intracellular protein kinase C (PKC).

| Compound | ATP-induced DMR signal, average signal (CHO-KCNQ cells; CHO-KCNQ cells cultured on discontinuous thin film of silicon dioxide particles on waveguide (FIG. 2B)) | ATP-induced DMR signal, average signal (CHO-KCNQ cells; CHO-KCNQ cells cultured on unmodified or bare niobia waveguide surface (FIG. 2A)) | amplitude of initial positive DMR (P-DMR) event, average signal ([1]; 10 micromolar ATP, HEK293 cells on low-density gelatin-coated 384-well Epic microplate, 16 wells (FIG. 6)) | ATP-induced DMR response intensity ([1]; 20 micromolar ATP, HEK293 cells on GRGDS-derivatized EMA surfaces made with 10, 30, 100, 250 micromolar GRGDS (FIG. 7)) | detection of ATP-induced DMR signals ([1]; HEK293 cells on low-, medium- and high-density gelatin-coated surfaces (FIG. 5)) | optical signal after stimulation ([2]; 9 μM, Jurkat cells on anti-CD3, EMA and anti-CD3-EMA surfaces (FIG. 8A)) | optical signal after stimulation ([2]; Jurkat cells on bare SiOx/Nb2O5 surface (FIG. 8A)) |
| --- | --- | --- | --- | --- | --- | --- | --- |
| Nc1ncnc2c1ncn2[C@@H]1O[C@H](COP(=O)(O)OP(=O)(O)OP(=O)(O)O)[C@@H](O)[C@H]1O [ATP, adenosine triphosphate] | 144 pm | 115 pm | 193 picometers (pm) | increasing response intensity | Only the low-density gelatin-coated surface enabled the detection |  |  |
| OH-lys-lys-trp-lys-met-arg-arg-asn-gln-phe-trp-ile-lys-ile-gln-arg-cys----cys-ser-val-glu-ile-trp-asp-OH [pseudo-RACK1] |  |  |  |  |  | significant optical signals | did not led to any detectable optical signal |
